Test results published in the supplement of paper PMC11208160.

assay: recombinant UMI read abundance after kanamycin selection (control-corrected) (log10(CPM+1)); higher = more efficient recombination; extreme values may be limits of the assay; sequences stand for … in AGTGCAGAGAAAATCGGCCAGTTTTCTCTGCCTGCAGTCCGCATGCCGTGGGACCCCTTGGGTTCTAACCTGTTGCCTAGATTTATGCAGCGGACTGCCTTTCTCCCAAAGTGATAAACCGG…AGGTTGGTTTCACT; site = the 11-nt donor
Description: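 Pooled E. coli donor-specificity screen for the IS621 bridge recombinase. Each library member carries a reprogrammed 11-nt donor and a full-length LE bridge RNA expressed in cis from the natural promoter, with a paired donor-binding loop (8-nt LDG + 4-nt RDG) and a target-binding loop fixed to T5. It is co-electroporated with a T5 target plasmid; recombinase is induced with 0.07 mM IPTG and recombinants are selected on kanamycin. UMIs are counted as CPM, averaged over two biological replicates and corrected by the unselected control. Molecule = full bridge RNA written as DNA, built from the T5 scaffold: LDG = donor specificity nt 1-8, RDG = reverse complement of nt 8-11.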
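Note: IS621 bridge recombinase in Escherichia coli cells against a fixed T5 target plasmid.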

In order of falling “recombinant UMI read abundance (log10)” value:
1. ACAGTATCATGGACCGGTTTTCCCGGTAATCCGTATTTGAC (site ACAGTATCTGT)  3.52
2. ACACCCTCATGGACCGGTTTTCCCGGTAATCCGTATTTGAC (site ACACCCTCTGT)  3.42
3. ACAGTGTCATGGACCGGTTTTCCCGGTAATCCGTATTTGAA (site ACAGTGTCTTT)  3.19
4. ACAGTATCATGGACCGGTTTTCCCGGTAATCCGTATTTGTA (site ACAGTATCTTA)  3.08
5. ACACCGTCATGGACCGGTTTTCCCGGTAATCCGTATTTGCC (site ACACCGTCTGG)  3.04
6. ACAGTATCATGGACCGGTTTTCCCGGTAATCCGTATTTGAA (site ACAGTATCTTT)  3.04
7. ACACTATCATGGACCGGTTTTCCCGGTAATCCGTATTTGTA (site ACACTATCTTA)  2.98
8. ACAGTATCATGGACCGGTTTTCCCGGTAATCCGTATTTGCC (site ACAGTATCTGG)  2.92
9. ACAGAATCATGGACCGGTTTTCCCGGTAATCCGTATTTGCA (site ACAGAATCTTG)  2.9
10. ACACTTTCATGGACCGGTTTTCCCGGTAATCCGTATTTGCA (site ACACTTTCTTG)  2.82
11. ACACCATCATGGACCGGTTTTCCCGGTAATCCGTATTTGCA (site ACACCATCTTG)  2.8
12. ACACGAACATGGACCGGTTTTCCCGGTAATCCGTATTTGGC (site ACACGAACTGC)  2.77
13. ACAGTAACATGGACCGGTTTTCCCGGTAATCCGTATTTGCT (site ACAGTAACTAG)  2.7
14. ACAGAATCATGGACCGGTTTTCCCGGTAATCCGTATTTGCA (site ACAGCATCTTG)  2.64
15. ACACGAACATGGACCGGTTTTCCCGGTAATCCGTATTTGTA (site ACACGAACTTA)  2.52
16. ACAGTATCATGGACCGGTTTTCCCGGTAATCCGTATTTGTA (site ACAGTATCTTG)  2.51
17. ACAGGATCATGGACCGGTTTTCCCGGTAATCCGTATTTGCA (site ACAGAATCTTG)  2.47
18. ACACGATCATGGACCGGTTTTCCCGGTAATCCGTATTTGTC (site ACACGATCTGA)  2.46
19. ACAGAATCATGGACCGGTTTTCCCGGTAATCCGTATTTGCA (site ACAGGATCTTG)  2.45
20. ACAGACTCATGGACCGGTTTTCCCGGTAATCCGTATTTGCA (site ACAGACTCTTG)  2.44
21. ACAGTATCATGGACCGGTTTTCCCGGTAATCCGTATTTGTA (site ACAGTATCTTT)  2.44
22. ACAGTAGCATGGACCGGTTTTCCCGGTAATCCGTATTTGCG (site ACAGTAGCTCG)  2.42
23. ACAGGATCATGGACCGGTTTTCCCGGTAATCCGTATTTGCA (site ACAGTATCTTG)  2.38
24. ACAGTATCATGGACCGGTTTTCCCGGTAATCCGTATTTGAA (site ACAGTATCTTA)  2.34
25. ACACTAACATGGACCGGTTTTCCCGGTAATCCGTATTTGTC (site ACACTAACTGA)  2.12
26. ACAGTATCATGGACCGGTTTTCCCGGTAATCCGTATTTGTA (site ACAGTATCTTC)  2.02
27. ACAGGATCATGGACCGGTTTTCCCGGTAATCCGTATTTGCA (site ACAGCATCTTG)  2.01
28. ACACGAACATGGACCGGTTTTCCCGGTAATCCGTATTTGGC (site ACACGAACTGT)  1.93
29. ACAGTATCATGGACCGGTTTTCCCGGTAATCCGTATTTGCC (site ACAGTATCTTG)  1.9
30. ACAGAATCATGGACCGGTTTTCCCGGTAATCCGTATTTGCA (site ACAGTATCTTG)  1.8
31. ACAGGATCATGGACCGGTTTTCCCGGTAATCCGTATTTGCA (site ACAGGATCTTG)  1.77
32. ACAGTATCATGGACCGGTTTTCCCGGTAATCCGTATTTGCC (site ACAGTATCTCG)  1.77
33. ACAGTATCATGGACCGGTTTTCCCGGTAATCCGTATTTGAA (site ACAGTATCTTC)  1.73
34. ACAGTACCATGGACCGGTTTTCCCGGTAATCCGTATTTGCA (site ACAGTATCTTG)  1.71
35. ACAGTATCATGGACCGGTTTTCCCGGTAATCCGTATTTGAC (site CTAGTATCTGT)  1.64
36. ACACGAACATGGACCGGTTTTCCCGGTAATCCGTATTTGTA (site ACACGAACTGA)  1.52
37. ACACATCCATGGACCGGTTTTCCCGGTAATCCGTATTTGGC (site ACACATCCTGC)  1.5
38. ACAGTATCATGGACCGGTTTTCCCGGTAATCCGTATTTGCC (site ACAGTATCTAG)  1.42
39. ACACCATCATGGACCGGTTTTCCCGGTAATCCGTATTTGAG (site ACACCATCTCT)  1.25
40. ACACCATCATGGACCGGTTTTCCCGGTAATCCGTATTTGCA (site ACAGTATCTTG)  1.21
41. ACACATCCATGGACCGGTTTTCCCGGTAATCCGTATTTGGC (site ACACATCCTGT)  1.19
42. ACACGAACATGGACCGGTTTTCCCGGTAATCCGTATTTGGC (site ACACGAACTGA)  1.19
43. ACACTTTCATGGACCGGTTTTCCCGGTAATCCGTATTTGCA (site ACAGTATCTTG)  1.19
44. ACAGTATCATGGACCGGTTTTCCCGGTAATCCGTATTTGAC (site ACAGTATCTTG)  1.15
45. ACAGAGGCATGGACCGGTTTTCCCGGTAATCCGTATTTGTG (site ACAGAGGCTCA)  1.14
46. ACAGTGTCATGGACCGGTTTTCCCGGTAATCCGTATTTGAA (site ACAGTATCTTG)  1.04
47. ACAGTAACATGGACCGGTTTTCCCGGTAATCCGTATTTGCT (site ACAGTATCTTG)  0.994
48. ACACGTCCATGGACCGGTTTTCCCGGTAATCCGTATTTGAC (site ACACGTCCTGT)  0.959
49. ACACTAACATGGACCGGTTTTCCCGGTAATCCGTATTTGTC (site ACACCAACTGA)  0.94
50. ACAGTATCATGGACCGGTTTTCCCGGTAATCCGTATTTGAA (site ACAGTATCTTG)  0.829
51. ACACGAACATGGACCGGTTTTCCCGGTAATCCGTATTTGTA (site ACACGAACTCA)  0.747
52. ACAGTAGCATGGACCGGTTTTCCCGGTAATCCGTATTTGCG (site ACAGTATCTTG)  0.736
53. ACACATCCATGGACCGGTTTTCCCGGTAATCCGTATTTGAC (site TCACATCCTGT)  0.538
54. ACACGATCATGGACCGGTTTTCCCGGTAATCCGTATTTGTC (site ACACGAACTGA)  0.373
55. ACACTTACATGGACCGGTTTTCCCGGTAATCCGTATTTGTT (site ACACTTACTAA)  0.147
56. ACAGTACCATGGACCGGTTTTCCCGGTAATCCGTATTTGCA (site ACAGTAGCTTG)  0.138
57. ACACGAACATGGACCGGTTTTCCCGGTAATCCGTATTTGTA (site ACACGAACTAA)  0.0114
58. ACAGTACCATGGACCGGTTTTCCCGGTAATCCGTATTTGCA (site ACAGTACCTTG)  0.00459
59. ACACATCCATGGACCGGTTTTCCCGGTAATCCGTATTTGGC (site ACACATCCTGA)  0
60. ACACATCCATGGACCGGTTTTCCCGGTAATCCGTATTTGGC (site ACACATCCTGG)  0
61. ACACGAACATGGACCGGTTTTCCCGGTAATCCGTATTTGGC (site ACACGAACTGG)  0
62. ACACGATCATGGACCGGTTTTCCCGGTAATCCGTATTTGTC (site ACACGACCTGA)  0
63. ACACGATCATGGACCGGTTTTCCCGGTAATCCGTATTTGTC (site ACACGAGCTGA)  0
64. ACACGTCCATGGACCGGTTTTCCCGGTAATCCGTATTTGAC (site ACACATCCTGT)  0
65. ACACGTCCATGGACCGGTTTTCCCGGTAATCCGTATTTGAC (site ACACCTCCTGT)  0
66. ACACGTCCATGGACCGGTTTTCCCGGTAATCCGTATTTGAC (site ACACTTCCTGT)  0
67. ACACTAACATGGACCGGTTTTCCCGGTAATCCGTATTTGTC (site ACACAAACTGA)  0
68. ACACTAACATGGACCGGTTTTCCCGGTAATCCGTATTTGTC (site ACACGAACTGA)  0
69. ACACTATCATGGACCGGTTTTCCCGGTAATCCGTATTTGTA (site ACAGTATCTTG)  0
70. ACAGACTCATGGACCGGTTTTCCCGGTAATCCGTATTTGCA (site ACAGTATCTTG)  0
71. ACAGTACCATGGACCGGTTTTCCCGGTAATCCGTATTTGCA (site ACAGTAACTTG)  0
72. ACAGTTCCATGGACCGGTTTTCCCGGTAATCCGTATTTGCC (site ACAGTTCCTGG)  0
